# Results reported in ChEMBL document CHEMBL1126959, “HMG-CoA reductase inhibitors: design, synthesis, and biological activity of tetrahydroindazole-substituted 3,5-dihydroxy-6-heptenoic acid sodium salts” (J Med Chem, 1993).
# Columns and labels:
# [1] = target: T1, 3-hydroxy-3-methylglutaryl-coenzyme A reductase (Rattus norvegicus, UniProt P51639); experiment: Inhibitory activity against partially purified rat liver HMG-CoA reductase in vitro; 1.9-5.3
# T1 sequence (P51639 whole entry): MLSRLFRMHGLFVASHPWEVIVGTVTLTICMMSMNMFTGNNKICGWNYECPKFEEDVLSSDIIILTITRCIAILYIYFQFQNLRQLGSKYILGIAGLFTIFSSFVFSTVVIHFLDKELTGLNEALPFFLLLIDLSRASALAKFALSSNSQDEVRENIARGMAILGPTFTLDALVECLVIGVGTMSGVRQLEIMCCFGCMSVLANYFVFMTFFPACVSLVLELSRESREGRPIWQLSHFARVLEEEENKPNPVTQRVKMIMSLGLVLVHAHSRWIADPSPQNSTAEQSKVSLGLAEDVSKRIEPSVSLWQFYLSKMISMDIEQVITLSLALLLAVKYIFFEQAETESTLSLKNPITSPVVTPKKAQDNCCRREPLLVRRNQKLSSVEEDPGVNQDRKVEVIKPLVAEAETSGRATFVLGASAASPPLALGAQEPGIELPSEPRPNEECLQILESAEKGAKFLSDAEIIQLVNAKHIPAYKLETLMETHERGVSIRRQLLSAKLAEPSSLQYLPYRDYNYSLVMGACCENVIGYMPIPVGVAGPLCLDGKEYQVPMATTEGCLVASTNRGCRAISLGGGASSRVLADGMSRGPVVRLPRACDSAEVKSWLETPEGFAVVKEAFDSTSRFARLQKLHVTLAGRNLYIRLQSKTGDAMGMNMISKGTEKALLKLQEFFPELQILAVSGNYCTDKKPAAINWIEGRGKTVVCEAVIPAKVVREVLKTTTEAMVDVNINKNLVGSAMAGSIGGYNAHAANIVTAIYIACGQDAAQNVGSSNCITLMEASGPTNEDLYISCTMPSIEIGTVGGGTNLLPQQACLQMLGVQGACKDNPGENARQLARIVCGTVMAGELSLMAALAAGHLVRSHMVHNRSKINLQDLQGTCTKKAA
# [2] = target: T1, 3-hydroxy-3-methylglutaryl-coenzyme A reductase; experiment: Inhibitory activity against partially purified rat liver HMG-CoA reductase in vitro; 3.1-9.1
# [3] = tested on: HepG2; experiment: Tested for ability to inhibit incorporation of [14C]acetate into cholesterol in cultured human hepatoma (HEP-G2) cells; 0.11-0.27; type: functional, cell-based
# [4] = target: T1, 3-hydroxy-3-methylglutaryl-coenzyme A reductase; experiment: Inhibitory activity against partially purified rat liver HMG-CoA reductase in vitro; 0.047-0.098
# [5] = target: T1, 3-hydroxy-3-methylglutaryl-coenzyme A reductase; experiment: Inhibitory activity against partially purified rat liver HMG-CoA reductase in vitro; 0.021-0.036
# [6] = tested on: HepG2; experiment: Tested for ability to inhibit incorporation of [14C]acetate into cholesterol in cultured human hepatoma (HEP-G2) cells; 0.26-0.80; type: functional, cell-based
# [7] = target: T1, 3-hydroxy-3-methylglutaryl-coenzyme A reductase; experiment: Inhibitory activity against partially purified rat liver HMG-CoA reductase in vitro; 3.8-19
# [8] = target: T1, 3-hydroxy-3-methylglutaryl-coenzyme A reductase; experiment: Inhibitory activity against partially purified rat liver HMG-CoA reductase in vitro; 1.7-2.6
# [9] = target: T1, 3-hydroxy-3-methylglutaryl-coenzyme A reductase; experiment: Inhibitory activity against partially purified rat liver HMG-CoA reductase in vitro; 4.1-22
# [10] = tested on: HepG2; experiment: Tested for ability to inhibit incorporation of [14C]acetate into cholesterol in cultured human hepatoma (HEP-G2) cells; 0.16-0.68; type: functional, cell-based
# [11] = target: T1, 3-hydroxy-3-methylglutaryl-coenzyme A reductase; experiment: Inhibitory activity against partially purified rat liver HMG-CoA reductase in vitro; 0.026-0.34
# [12] = tested on: HepG2; experiment: Tested for ability to inhibit incorporation of [14C]acetate into cholesterol in cultured human hepatoma (HEP-G2) cells; 2.9-4.6; type: functional, cell-based
# [13] = target: T1, 3-hydroxy-3-methylglutaryl-coenzyme A reductase; experiment: Inhibitory activity against partially purified rat liver HMG-CoA reductase in vitro; 0.17-0.61
# [14] = target: T1, 3-hydroxy-3-methylglutaryl-coenzyme A reductase; experiment: Inhibitory activity against partially purified rat liver HMG-CoA reductase in vitro; 0.0050-0.016
# [15] = tested on: HepG2; experiment: Tested for ability to inhibit incorporation of [14C]acetate into cholesterol in cultured human hepatoma (HEP-G2) cells; 0.22-0.48; type: functional, cell-based
# [16] = target: T1, 3-hydroxy-3-methylglutaryl-coenzyme A reductase; experiment: Inhibitory activity against partially purified rat liver HMG-CoA reductase in vitro; 1.8-3.7
# [17] = target: T1, 3-hydroxy-3-methylglutaryl-coenzyme A reductase; experiment: Inhibitory activity against partially purified rat liver HMG-CoA reductase in vitro; 0.73-10
# [18] = tested on: HepG2; experiment: Tested for ability to inhibit incorporation of [14C]acetate into cholesterol in cultured human hepatoma (HEP-G2) cells; 0.73-91; type: functional, cell-based
# [19] = target: T1, 3-hydroxy-3-methylglutaryl-coenzyme A reductase; experiment: Inhibitory activity against partially purified rat liver HMG-CoA reductase in vitro; 0.015-0.51
# [20] = tested on: HepG2; experiment: Tested for ability to inhibit incorporation of [14C]acetate into cholesterol in cultured human hepatoma (HEP-G2) cells; 0.15-1.7; type: functional, cell-based
# [21] = tested on: HepG2; experiment: Tested for ability to inhibit incorporation of [14C]acetate into cholesterol in cultured human hepatoma (HEP-G2) cells; 0.053-0.12; type: functional, cell-based
# [22] = tested on: HepG2; experiment: Tested for ability to inhibit incorporation of [14C]acetate into cholesterol in cultured human hepatoma (HEP-G2) cells; 0.061-0.10; type: functional, cell-based
# [23] = target: T1, 3-hydroxy-3-methylglutaryl-coenzyme A reductase; experiment: Inhibitory activity against partially purified rat liver HMG-CoA reductase in vitro; 0.23-0.71
smiles,measurement,setting,value
CCC(C)C1CCCc2c1nn(-c1ccc(F)cc1)c2/C=C/[C@@H](O)C[C@@H](O)CC(=O)O (stereo partly drawn),IC50,[1],3200 nM
O=C(O)C[C@H](O)C[C@H](O)/C=C/c1c2c(nn1-c1ccc(F)cc1)CCCC2,IC50,[2],5300 nM
O=C(O)C[C@H](O)C[C@H](O)/C=C/c1c2c(nn1-c1ccc(F)cc1)C(Cc1ccccc1)CCC2 (stereo partly drawn),IC50,[3],170 nM
same,IC50,[4],68 nM
O=C(O)C[C@H](O)C[C@H](O)/C=C/c1c2c(nn1-c1ccc(F)cc1)C(Cc1cccc3ccccc13)CCC2 (stereo partly drawn),IC50,[5],28 nM
same,IC50,[6],460 nM
O=C(O)C[C@H](O)C[C@H](O)/C=C/c1c2c(nn1-c1ccc(F)cc1)C(C1CCCCC1)CCC2 (stereo partly drawn),IC50,[7],8500 nM
CC1CCCc2c1nn(-c1ccc(F)cc1)c2/C=C/[C@@H](O)C[C@@H](O)CC(=O)O (stereo partly drawn),IC50,[8],2100 nM
O=C(O)C[C@H](O)C[C@H](O)/C=C/c1c2c(nn1-c1ccc(F)cc1)-c1ccccc1CC2,IC50,[9],9400 nM
O=C(O)C[C@H](O)C[C@H](O)/C=C/c1c2c(nn1-c1ccc(F)cc1)C(Cc1ccccc1Cl)CCC2 (stereo partly drawn),IC50,[10],330 nM
same,IC50,[11],95 nM
COc1ccc(CC2CCCc3c2nn(-c2ccc(F)cc2)c3/C=C/[C@@H](O)C[C@@H](O)CC(=O)O)cc1OC (stereo partly drawn),IC50,[12],3600 nM
same,IC50,[13],320 nM
O=C(O)C[C@H](O)C[C@H](O)/C=C/c1c2c(nn1-c1ccc(F)cc1)C(Cc1ccc3ccccc3c1)CCC2 (stereo partly drawn),IC50,[14],9 nM
same,IC50,[15],330 nM
O=C(O)C[C@H](O)C[C@H](O)/C=C/c1c2c(nn1-c1ccc(F)cc1)-c1ccccc1CCC2,IC50,[16],2600 nM
O=C(O)C[C@H](O)C[C@H](O)/C=C/c1c2c(nn1-c1ccc(F)cc1)C(c1ccccc1)CCC2 (stereo partly drawn),IC50,[17],2800 nM
same,IC50,[18],8100 nM
COc1ccc(CC2CCCc3c2nn(-c2ccc(F)cc2)c3/C=C/[C@@H](O)C[C@@H](O)CC(=O)O)cc1 (stereo partly drawn),IC50,[19],28 nM
same,IC50,[20],500 nM
CC(C)n1c(/C=C/C(O)CC(O)CC(=O)O)c(-c2ccc(F)cc2)c2ccccc21 (stereo not drawn) [FLUVASTATIN SODIUM],IC50,[21],79 nM
CC[C@H](C)C(=O)O[C@H]1C[C@@H](C)C=C2C=C[C@H](C)[C@H](CC[C@@H]3C[C@@H](O)CC(=O)O3)[C@H]21 [LOVASTATIN],IC50,[22],79 nM
same,IC50,[23],400 nM
